In ChEMBL document CHEMBL1201862, “PubChem BioAssay data set” (2004):
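Step 1: Grow cells in 96-well plates. Step 2: Expose to compound for 48 hours at 5 concentrations. Step 3: Interpolate endpoints linearly; if unreached, use highest concentration. At the GI50, growth is halved.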 Activity calls are given as the source filed them. Cut-off read from the data, not from the text of the source: active = GI50 up to about 1.1 µM and inactive = higher.

Experiments:
Experiment in all cases: NCI tumour cell line growth inhibition, 48 h
[1] = test system: 786-0
[2] = test system: A498
[3] = test system: A549
[4] = test system: ACHN
[5] = test system: BT-549
[6] = test system: CAKI-1
[7] = test system: CCRF-CEM
[8] = test system: COLO 205
[9] = test system: DU-145
[10] = test system: EKVX
[11] = test system: HCC 2998
[12] = test system: HCT-15
[13] = test system: HL-60
[14] = test system: HT-29
[15] = test system: Hs-578T
[16] = test system: IGROV-1
[17] = test system: K562
[18] = test system: KM12
[19] = test system: LOX IMVI
[20] = test system: M14
[21] = test system: MCF7
[22] = test system: MDA-MB-231
[23] = test system: MDA-MB-435
[24] = test system: MDA-N
[25] = test system: MOLT-4
[26] = test system: Malme-3M
[27] = test system: NCI-H226
[28] = test system: NCI-H23
[29] = test system: NCI-H460
[30] = test system: NCI-H522
[31] = test system: NCI/ADR-RES
[32] = test system: OVCAR-3
[33] = test system: OVCAR-4
[34] = test system: OVCAR-5
[35] = test system: OVCAR-8
[36] = test system: PC-3
[37] = test system: RPMI-8226
[38] = test system: RXF 393
[39] = test system: SF-268
[40] = test system: SF-295
[41] = test system: SF-539
[42] = test system: SK-MEL-28
[43] = test system: SK-MEL-2
[44] = test system: SK-MEL-5
[45] = test system: SK-OV-3
[46] = test system: SN12C
[47] = test system: SNB-19
[48] = test system: SW-620
[49] = test system: T47D
[50] = test system: TK-10
[51] = test system: U-251
[52] = test system: UACC-257
[53] = test system: UACC-62
[54] = test system: UO-31
[55] = test system: HCT-116
[56] = test system: HOP-62
[57] = test system: HOP-92
[58] = test system: SNB-75
[59] = test system: SR

COc1ccc(NC2=CC(=O)C(=O)c3ccccc32)nn1
GI50 [1]: 1.86 µM (inactive)
GI50 [2]: 1.73 µM (inactive)
GI50 [3]: 3.1 µM (inactive)
GI50 [4]: 1.66 µM (inactive)
GI50 [5]: 0.743 µM (active)
GI50 [6]: 2.19 µM (inactive)
GI50 [7]: 2.92 µM (inactive)
GI50 [8]: 1.73 µM (inactive)
GI50 [9]: 1.45 µM (inactive)
GI50 [10]: 3.1 µM (inactive)
GI50 [11]: 6.68 µM (inactive)
GI50 [12]: 0.423 µM
GI50 [13]: 0.273 µM (active)
GI50 [14]: 1.64 µM (inactive)
GI50 [15]: 1.99 µM (inactive)
GI50 [16]: 1.69 µM (inactive)
GI50 [17]: 0.224 µM (active)
GI50 [18]: 0.361 µM (active)
GI50 [19]: 1.66 µM (inactive)
GI50 [20]: 0.281 µM (active)
GI50 [21]: 0.557 µM (active)
GI50 [22]: 3.69 µM (inactive)
GI50 [23]: 0.197 µM (active)
GI50 [24]: 0.262 µM (active)
GI50 [25]: 0.546 µM (active)
GI50 [26]: 0.661 µM (active)
GI50 [27]: 2.31 µM (inactive)
GI50 [28]: 1.91 µM (inactive)
GI50 [29]: 1.54 µM (inactive)
GI50 [30]: 0.492 µM (active)
GI50 [31]: 0.514 µM (active)
GI50 [32]: 1.2 µM (inactive)
GI50 [33]: 1.41 µM (inactive)
GI50 [34]: 1.92 µM (inactive)
GI50 [35]: 1.67 µM (inactive)
GI50 [36]: 2.73 µM (inactive)
GI50 [37]: 1.51 µM (inactive)
GI50 [38]: 1.36 µM (inactive)
GI50 [39]: 1.51 µM (inactive)
GI50 [40]: 0.822 µM (active)
GI50 [41]: 0.902 µM (active)
GI50 [42]: 1.08 µM (active)
GI50 [43]: 1.95 µM (inactive)
GI50 [44]: 0.643 µM (active)
GI50 [45]: 2.17 µM (inactive)
GI50 [46]: 1.6 µM (inactive)
GI50 [47]: 2.9 µM (inactive)
GI50 [48]: 1.29 µM (inactive)
GI50 [49]: 3.4 µM (inactive)
GI50 [50]: 3.56 µM (inactive)
GI50 [51]: 1.52 µM (inactive)
GI50 [52]: 1.72 µM (inactive)
GI50 [53]: 1.34 µM (inactive)
GI50 [54]: 2.5 µM (inactive)

COc1ccc(C2=NN(C(=O)c3cccnc3)C(O)(c3cc(F)c(Cl)cc3Cl)C2)cc1OC (configuration not stated)
GI50 [1]: 22 µM (inactive)
GI50 [3]: 20.4 µM (inactive)
GI50 [4]: 21.3 µM (inactive)
GI50 [5]: 19.3 µM (inactive)
GI50 [6]: 24.1 µM (inactive)
GI50 [7]: 11.4 µM (inactive)
GI50 [8]: 12.3 µM (inactive)
GI50 [9]: 27.9 µM (inactive)
GI50 [10]: 19.6 µM (inactive)
GI50 [55]: 14.8 µM (inactive)
GI50 [12]: 14.8 µM
GI50 [13]: 12.8 µM (inactive)
GI50 [56]: 19 µM (inactive)
GI50 [57]: 14.1 µM (inactive)
GI50 [14]: 12.3 µM (inactive)
GI50 [15]: 19.4 µM (inactive)
GI50 [16]: 8.11 µM (inactive)
GI50 [17]: 17.4 µM (inactive)
GI50 [18]: 19.1 µM (inactive)
GI50 [19]: 13.9 µM (inactive)
GI50 [20]: 15.8 µM (inactive)
GI50 [22]: 13.9 µM (inactive)
GI50 [23]: 15.2 µM (inactive)
GI50 [24]: 21.3 µM (inactive)
GI50 [25]: 8.97 µM (inactive)
GI50 [26]: 22.6 µM (inactive)
GI50 [27]: 12.8 µM (inactive)
GI50 [28]: 20.4 µM (inactive)
GI50 [29]: 15.2 µM (inactive)
GI50 [30]: 13.8 µM (inactive)
GI50 [31]: 14.8 µM (inactive)
GI50 [32]: 11.5 µM (inactive)
GI50 [33]: 15.6 µM (inactive)
GI50 [34]: 30.2 µM (inactive)
GI50 [35]: 14.5 µM (inactive)
GI50 [36]: 12.6 µM (inactive)
GI50 [37]: 13.4 µM (inactive)
GI50 [38]: 15.5 µM (inactive)
GI50 [39]: 17.3 µM (inactive)
GI50 [40]: 15.5 µM (inactive)
GI50 [41]: 16.1 µM (inactive)
GI50 [42]: 19.5 µM (inactive)
GI50 [43]: 14.8 µM (inactive)
GI50 [44]: 12.1 µM (inactive)
GI50 [45]: 26.1 µM (inactive)
GI50 [46]: 15.3 µM (inactive)
GI50 [47]: 29.9 µM (inactive)
GI50 [58]: 23.5 µM (inactive)
GI50 [59]: 7.28 µM (inactive)
GI50 [48]: 17.9 µM (inactive)
GI50 [49]: 24 µM (inactive)
GI50 [50]: 30.4 µM (inactive)
GI50 [51]: 13.8 µM (inactive)
GI50 [52]: 13.6 µM (inactive)
GI50 [54]: 17.5 µM (inactive)

c1ccc2c(CSCc3cccc4ccccc34)cccc2c1
GI50 [1]: > 100 µM (inactive)
GI50 [2]: > 100 µM (inactive)
GI50 [3]: > 100 µM (inactive)
GI50 [4]: > 100 µM (inactive)
GI50 [5]: > 100 µM (inactive)
GI50 [6]: > 100 µM (inactive)
GI50 [7]: 3.5 µM (inactive)
GI50 [9]: > 100 µM (inactive)
GI50 [10]: 46.8 µM (inactive)
GI50 [11]: 50.8 µM (inactive)
GI50 [55]: 57.5 µM (inactive)
GI50 [12]: 1.91 µM
GI50 [56]: > 100 µM (inactive)
GI50 [57]: > 100 µM (inactive)
GI50 [14]: 40.2 µM (inactive)
GI50 [15]: > 100 µM (inactive)
GI50 [16]: 38.5 µM (inactive)
GI50 [17]: 76.7 µM (inactive)
GI50 [18]: > 100 µM (inactive)
GI50 [19]: > 100 µM (inactive)
GI50 [20]: > 100 µM (inactive)
GI50 [22]: > 100 µM (inactive)
GI50 [23]: > 100 µM (inactive)
GI50 [24]: > 100 µM (inactive)
GI50 [25]: 34.5 µM (inactive)
GI50 [26]: 58.9 µM (inactive)
GI50 [27]: > 100 µM (inactive)
GI50 [28]: > 100 µM (inactive)
GI50 [29]: 43.4 µM (inactive)
GI50 [30]: 99.3 µM (inactive)
GI50 [31]: > 100 µM (inactive)
GI50 [32]: > 100 µM (inactive)
GI50 [33]: > 100 µM (inactive)
GI50 [34]: > 100 µM (inactive)
GI50 [35]: > 100 µM (inactive)
GI50 [36]: 43.4 µM (inactive)
GI50 [38]: > 100 µM (inactive)
GI50 [39]: > 100 µM (inactive)
GI50 [40]: > 100 µM (inactive)
GI50 [42]: > 100 µM (inactive)
GI50 [43]: > 100 µM (inactive)
GI50 [44]: 88.7 µM (inactive)
GI50 [46]: > 100 µM (inactive)
GI50 [47]: > 100 µM (inactive)
GI50 [58]: > 100 µM (inactive)
GI50 [59]: 28.6 µM (inactive)
GI50 [48]: > 100 µM (inactive)
GI50 [49]: 53.6 µM (inactive)
GI50 [50]: > 100 µM (inactive)
GI50 [51]: 85.1 µM (inactive)
GI50 [52]: 52.7 µM (inactive)
GI50 [53]: > 100 µM (inactive)
GI50 [54]: > 100 µM (inactive)
